In patent publication EP0176033A2, “Isoxazolecarboxylic-acid derivatives, their preparation and use” (BASF Aktiengesellschaft, priority 1984, dated 1986):

System: Rhino-Maus
Test: Rhino mouse model: reduction of utriculus diameter after topical application (comedolytic activity)
Type: in vivo
Conditions: 100 µl on the back, once daily, 5 days per week, 2 weeks, versus untreated control group
Source text: Die antiarthritische Wirkung der erfindungsgemäßen Verbindungen kann in üblicher Weise im Tierexperiment im Adjuvans-Arthritis-Modell bestimmt werden. Die dermatologische Aktivität, beispielsweise für die Behandlung von Akne, kann u. a. durch die komedolytische Aktivität und die Fähigkeit nachgewiesen werden, die Anzahl der Zysten im Modell der Rhino--Maus zu reduzieren.
Diese Methode ist von L. H. Kligman et al in The Journal of Investigative Dermatology 73, 354 - 358 (1979) und von J.A. Mezick et al. in "Models of Dermatalogy" (Ed. Maibach, Läwe), Vol. 2, S. 59-63, Karger, Basel 1985) beschrieben.
Die Testsubstanz wurde in einem geeigneten Vehikel auf der gesamten Rückenpartie der Rhino-Maus topisch aufgetragen (100 µl), einmal täglich, an fünf aufeinanderfolgenden Tagen pro Woche, zwei Wochen lang ungefähr 72 h nach der letzten Behandlung wurde die dorsale Haut entfernt und in 0,5 Xiger Essigsäure 18 h bei 4-6°C belassen. Danach wurde eine ca. 2 x 5 cm^2 große Fläche herausgeschnitten, die Epidermis abgeschält, auf einen Objektträger aufgebracht (mit der dermalen Seite nach oben) und mittels Alkohol/Xylol wasserfrei gespült, bis die Epidermis durchsichtig erscheint. Die Probe wurde durch Uberziehen mit Permount fixiert und mikroskopisch ausgewertet. […]

## C/C(=C\c1cc(C(=O)O)no1)c1ccc2c(c1)C(C)(C)CCC2(C)C [Beispiel 17a, (E)-5-[2-(5,5,8,8-Tetramethyl-5,6,7,8-tetrahydro-naphth--2-yl)-1-propenyl]isoxazol-3-carbonsäure]
Dosis 0,2 mg/ml
  Reduktion des Utriculusdurchmessers in %: 45,1%
Dosis 2 mg/ml
  Reduktion des Utriculusdurchmessers in %: 75,6%
